Values of other authors, collected in patent US20240032540A1, “MICROPARTICLE COMPOSITIONS COMPRISING FUNGICIDES” (BASF CORPORATION, priority 2020, published 2024).

SMILES: O=C(NCCc1ncc(C(F)(F)F)cc1Cl)c1ccccc1C(F)(F)F [Fluopyram, N-{2-[3-chloro-5-(trifluoromethyl)-2-pyridyl]ethyl}-a,a,a-trifluoro-o-toluamide]
- solubility in water: only sparingly soluble in water
